In BindingDB's records for doi:10.1021/ml100192b (2011):

What was measured:
[1] = Inhibition of maltase in mouse intestinal input by glucose release assay
[2] = Inhibition of lactase in mouse intestinal input by glucose release assay

| Structure (SMILES) | IC50 [1] | IC50 [2] |
| --- | --- | --- |
| CCCCCCCOCCCCCN1C[C@H](O)[C@@H](O)[C@H](O)[C@@H]1CO [N-Heptoxypentyl-L-ido-1-deoxynojirimycin] | > 1000 µM | 250 µM |
| CCCCCCCOCCCCCN1C[C@H](O)[C@@H](O)[C@H](O)[C@H]1CO [N-Heptoxypentyl-1-deoxynojirimycin] | 7 µM | 250 µM |
